Source: US20070129436A1, “Agent for Suppressing Body Fat Accumulation” (YAMAHA HATSUDOKI KABUSHIKI KAISHA, priority 2005, published 2007)

Experiments:
[1] = tested on: Human umbilical vein endothelial cells (HUVECs); experiment: Measurement of 50% lethal concentration for HUVEC (alamarBlue); format: cell-based
Experimental: Human umbilical vein endothelial cells (HUVECs) (ATCC CRL-1730) were obtained from American Type Culture Collection and precultivated in an Endothelial Cell Growth Medium (CELL APPLICATIONS, USA) containing 10% bovine fetal serum supplemented with 1% Antibiotic-Antimycotic (GIBCO BRL, USA) under a 5% CO2 atmosphere at 37° C.
A Matrigel matrix (BD Biosciences, USA) was melted and kept at 4° C. on ice, and then, 50 μL of the matrix were transferred to each well of a 96-well tissue culture plate. The plate was incubated at 37° C. for at least one hour to solidify the matrix solution.
On the other hand, the astaxanthin monoester obtained in Preparation Example 1 was dissolved in dimethylsulfoxide (DMSO), and then diluted with distilled water to prepare stock test solutions in which the astaxanthin monoester was contained in 40 (v/v) % DMSO at 25000, 2500, 250, 25, and 2.5 μM, respectively. […]
After the incubation, 20 μL of a 90% alamarBlue reagent were added to individual wells, and incubated for an additional 6 hours. Then, the fluorescence intensity of each well was measured at an excitation wavelength of 530 nm and an emission wavelength of 590 nm using a Spectrafluor Plus plate reader to count the number of living cells. […] The 50% lethal concentration was calculated as the concentration at which the number of living cells was 50% of the number of cells at the start of the experiment.

[2] = tested on: obese model mice fed with a high-fat diet; experiment: Effect of astaxanthin monoester on obese model mice fed with a high-fat diet; format: in vivo, male C57BL/6J strain mice
Experimental: Astaxanthin was administered to obese model mice fed with a high-fat diet, and the change in body weight, the amount of subcutaneous fat (in the inguinal region and the back), the amount of visceral fat (around the reproductive organs and around the kidney), and the liver weight were examined in the following manner.
Four week old male C57BL/6J strain mice (SPF) purchased from CHARLES RIVER LABORATORIES JAPAN, INC. were used. The mice were preliminarily fed for 8 days and used for the test after they reached the age of 5 weeks. The mice were divided into three groups of 8 each, that is, a normal diet group, a high-fat diet group, and a high-fat diet+astaxanthin (AX) group, so that the average body weight was equal among the groups.
During the preliminary feeding period, the mice were given an ordinary powder diet (MF, Oriental Yeast Co., Ltd.), and during the test period of 16 weeks, the mice were given the ordinary powder diet or a high-fat diet having the composition shown in Table 1 below. As to drinking water, the mice were allowed to drink freely sterile distilled water from a water supply bottle.
The astaxanthin monoester prepared in Preparation Example 1 was dissolved in an olive oil (Wako Pure Chemical Industries, Ltd.) to prepare a solution containing astaxanthin monoester at a concentration of 60 mg/mL. This solution was administered to the high-fat diet+AX group and the olive oil to the other two groups in a volume of 0.05 mL/10 g body weight every day for 16 weeks from the start of the test (at the age of 5 weeks) to the age of 21 weeks, using a probe for oral administration in the mice.
During the test period, the body weight was measured once a week using a scale. At the end of the test, the body weight was measured, and thereafter, the mice were fasted overnight and sacrificed by collecting blood from the heart. Then, the liver, the adipose tissue in the inguinal region, the adipose tissue around the reproductive organs, the adipose tissue around the kidney, and the adipose tissue in the back were collected and the weights thereof were measured.
The different types of data obtained were expressed as average values±standard errors for each group. In order to test for statistically significant differences between the high-fat diet group and the high-fat diet+AX group or the normal diet group, a multiple comparison test (ANOVA) was performed using an analysis software (Stat View, Abacus Inc., USA), and a comparison between the groups was performed using Fisher's PLSD multiple comparison test. Differences were considered statistically significant when p<0.05.

[3] = high-fat diet+AX vs high-fat diet group, oral daily for 16 weeks, end of test, FIG. 2
[4] = high-fat diet+AX vs high-fat diet group, oral daily for 16 weeks, end of test, FIG. 3

With astaxanthin monoester the LC50 ([1]; 72 hours incubation, 250 μM = maximum concentration dissolved in DMSO) was ≥ 250 µM, the toxicity ([1]; conclusion from the LC50 for HUVECs) was “low” and the “increase in body weight” value ([2]; high-fat diet+AX group vs high-fat diet group, oral, 60 mg/mL in olive oil, 0.05 mL/10 g body weight every day for 16 weeks, FIG. 1) was “tended to be distinctly suppressed”. For the same substance, the “amount of fat accumulation in subcutaneous fat (weight)” value [2, 3] was “significantly suppressed”, the “amount of fat accumulation in visceral fat (weight)” value [2, 3] was “significantly suppressed” and the “proportion of the liver weight to body weight” value [2, 4] was “approached that in the case of the normal diet”. For the same substance, the “proportions of all of the adipose tissues to body weight (increase)” value [2, 4] was “significantly suppressed”.
